Data from PMC4406737, “Meroterpenoid Chrodrimanins Are Selective and Potent Blockers of Insect GABA-Gated Chloride Channels” (PLoS ONE, 2015).

Experiments:
[1] = target: T1, B. mori GABAR RDL (wild-type isoform, exon 3b and exon 6d) (Bombyx mori, UniProt U3TMA1); assay: two-electrode voltage clamp, Xenopus oocytes, agonist concentration-response; format: cell-based
T1 construct: full cDNA in pcDNA3.1, cRNA expressed in Xenopus laevis oocytes; RDL injected alone (homomer)
T1 sequence (U3TMA1 29-482): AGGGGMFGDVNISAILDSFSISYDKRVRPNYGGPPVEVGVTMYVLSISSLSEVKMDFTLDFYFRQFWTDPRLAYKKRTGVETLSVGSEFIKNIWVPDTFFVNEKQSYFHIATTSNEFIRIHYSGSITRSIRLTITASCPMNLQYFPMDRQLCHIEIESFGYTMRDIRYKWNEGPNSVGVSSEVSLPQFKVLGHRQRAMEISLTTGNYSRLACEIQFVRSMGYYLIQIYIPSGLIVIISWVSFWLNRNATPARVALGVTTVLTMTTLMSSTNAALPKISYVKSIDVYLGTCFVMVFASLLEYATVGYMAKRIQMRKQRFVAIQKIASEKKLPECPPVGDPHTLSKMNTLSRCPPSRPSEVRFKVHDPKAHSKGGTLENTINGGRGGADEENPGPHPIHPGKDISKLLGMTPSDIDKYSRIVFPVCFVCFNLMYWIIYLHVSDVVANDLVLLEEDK

[2] = target: T1, B. mori GABAR RDL (wild-type isoform, exon 3b and exon 6d); assay: two-electrode voltage clamp, Xenopus oocytes, block of GABA peak current; format: cell-based

## NCCCC(=O)O [GABA]
[1]
  EC50: 41.1 µM

## N#Cc1nn(-c2c(Cl)cc(C(F)(F)F)cc2Cl)c(N)c1[S+]([O-])C(F)(F)F (centres unmarked) [fipronil]
[2]
  IC50: 0.0394 µM
